Source: patent publication US10597388B2, “Pyridazinone herbicides” (FMC CORPORATION, priority 2014, dated 2020)

Columns and labels:
Test in all cases: Test D controlled growth environment herbicide test, pre- and postemergence
Format in all cases: in vivo
[1] = test system: field poppy (Papaver rhoeas)
Outline: (§1)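 Pre-emergence: seeds sown in silt loam soil were sprayed with compound in a non-phytotoxic solvent mix containing surfactant. Post-emergence: plants at 2 to 18 cm (1- to 4-leaf stage) in peat moss/vermiculite medium got the same formulation. Visual 0–100 rating versus controls after 14 to 21 d.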

[2] = test system: barley, spring (spring barley, Hordeum vulgare)
Outline: as §1

[3] = test system: wheat, spring (spring wheat, Triticum aestivum)
Outline: as §1

[4] = test system: speedwell (bird's-eye speedwell, Veronica persica)
Outline: as §1

[5] = test system: blackgrass (Alopecurus myosuroides)
Outline: as §1

[6] = test system: mustard, wild (wild mustard, Sinapis arvensis)
Outline: as §1

[7] = test system: kochia (Kochia scoparia)
Outline: as §1

[8] = test system: oat, wild (wild oat, Avena fatua)
Outline: as §1

[9] = test system: barley, winter (winter barley, Hordeum vulgare)
Outline: as §1

[10] = test system: radish, wild (wild radish, Raphanus raphanistrum)
Outline: as §1

[11] = test system: bluegrass (annual bluegrass, Poa annua)
Outline: as §1

[12] = test system: Russian thistle (Salsola kali)
Outline: as §1

[13] = test system: pigweed (Amaranthus retroflexus)
Outline: as §1

[14] = Postemergence, 31 g ai/ha, scale 0 to 100 (0 no effect, 100 complete control)
[15] = Postemergence, 125 g ai/ha, visual rating on scale 0 (no effect) to 100 (complete control), 14 to 21 d
[16] = Postemergence, 250 g ai/ha, scale 0 to 100 (0 no effect, 100 complete control)
[17] = Preemergence, 62 g ai/ha, scale 0 to 100 (0 no effect, 100 complete control)
[18] = Preemergence, 125 g ai/ha, scale 0 to 100 (0 no effect, 100 complete control)
[19] = Preemergence, 250 g ai/ha, scale 0 to 100, 0 no effect, 100 complete control
[20] = postemergence, 62 g ai/ha, scale 0 to 100, 0 no effect, 100 complete control

Cc1ccc2ccccc2c1-c1c(OC(=O)OC(C)C)c(C)nn(C)c1=O [Compound 72]
35: Plant response rating, Wheat, Spring [3, 17] | Plant response rating, Barley, Winter [9, 16] | Plant response rating, Bluegrass [11, 20] | Plant response rating (scale of 0 to 100), Pigweed ([13]; Preemergence, 31 g ai/ha)
10: Plant response rating, Barley, Spring [2, 15] | Plant response rating (scale of 0 to 100), Kochia ([7]; Preemergence, 31 g ai/ha) | Plant response rating, Kochia [7, 18] | Barley, Winter plant response rating [9, 14] | Plant response rating (scale of 0 to 100), Bluegrass ([11]; Preemergence, 31 g ai/ha) | Plant response rating, Russian Thistle [12, 17]
15: Plant response rating, Barley, Spring [2, 16] | Plant response rating (scale of 0 to 100), Blackgrass ([5]; Preemergence, 31 g ai/ha) | Plant response rating, Kochia [7, 17] | Plant response rating, Russian Thistle [12, 18]
90: Plant response rating, Field Poppy [1, 20] | Plant response rating, Radish, Wild [10, 15]
70: Plant response rating, Wheat, Spring [3, 16] | Plant response rating, Speedwell [4, 17] | Plant response rating, Blackgrass [5, 20] | Russian Thistle plant response rating [12, 14]
60: Plant response rating, Barley, Spring [2, 19] | Plant response rating, Wheat, Spring [3, 15] | Plant response rating, Mustard, Wild [6, 18]
95: Plant response rating, Kochia [7, 20] | Plant response rating, Oat, Wild [8, 15] | Plant response rating, Oat, Wild [8, 19] | Plant response rating, Radish, Wild [10, 16] | Pigweed plant response rating [13, 14] | Plant response rating, Pigweed [13, 18]
55: Plant response rating, Blackgrass [5, 18] | Plant response rating, Bluegrass [11, 16]
25: Plant response rating, Mustard, Wild [6, 17] | Plant response rating, Barley, Winter [9, 17] | Plant response rating, Bluegrass [11, 17] | Plant response rating, Bluegrass [11, 18] | Plant response rating, Russian Thistle [12, 19]
0: Plant response rating (scale of 0 to 100), Barley, Spring ([2]; Preemergence, 31 g ai/ha) | Plant response rating, Barley, Spring [2, 17] | Plant response rating, Barley, Spring [2, 18] | Plant response rating (scale of 0 to 100), Wheat, Spring ([3]; Preemergence, 31 g ai/ha) | Plant response rating (scale of 0 to 100), Mustard, Wild ([6]; Preemergence, 31 g ai/ha) | Plant response rating (scale of 0 to 100), Radish, Wild ([10]; Preemergence, 31 g ai/ha) | Plant response rating, Radish, Wild [10, 17] | Plant response rating (scale of 0 to 100), Russian Thistle ([12]; Preemergence, 31 g ai/ha)
50: Plant response rating, Wheat, Spring [3, 20] | Plant response rating, Barley, Winter [9, 18] | Plant response rating, Radish, Wild [10, 18] | Plant response rating, Radish, Wild [10, 19] | Plant response rating, Bluegrass [11, 19]
85: Mustard, Wild plant response rating [6, 14] | Oat, Wild plant response rating [8, 14] | Plant response rating, Oat, Wild [8, 18] | Plant response rating, Oat, Wild [8, 20] | Plant response rating, Russian Thistle [12, 16] | Plant response rating, Pigweed [13, 17]
40: Wheat, Spring plant response rating [3, 14] | Blackgrass plant response rating [5, 14] | Plant response rating, Kochia [7, 19] | Plant response rating, Bluegrass [11, 15]
30: Plant response rating, Blackgrass [5, 17] | Plant response rating, Barley, Winter [9, 15]
100: Plant response rating, Field Poppy [1, 15] | Plant response rating, Field Poppy [1, 16] | Plant response rating (scale of 0 to 100), Field Poppy ([1]; Preemergence, 31 g ai/ha) | Plant response rating, Field Poppy [1, 17] | Plant response rating, Field Poppy [1, 18] | Plant response rating, Field Poppy [1, 19] | Plant response rating, Speedwell [4, 15] | Plant response rating, Speedwell [4, 19] | Plant response rating, Mustard, Wild [6, 15] | Plant response rating, Mustard, Wild [6, 16] | Plant response rating, Mustard, Wild [6, 20] | Plant response rating, Kochia [7, 15] | Plant response rating, Kochia [7, 16] | Plant response rating, Pigweed [13, 15] | Plant response rating, Pigweed [13, 16] | Plant response rating, Pigweed [13, 19] | Plant response rating, Pigweed [13, 20]
65: Plant response rating, Wheat, Spring [3, 18] | Plant response rating (scale of 0 to 100), Oat, Wild ([8]; Preemergence, 31 g ai/ha)
20: Plant response rating, Barley, Winter [9, 20] | Bluegrass plant response rating [11, 14]
75: Speedwell plant response rating [4, 14] | Plant response rating, Speedwell [4, 20] | Plant response rating, Blackgrass [5, 15] | Plant response rating, Blackgrass [5, 19] | Plant response rating, Oat, Wild [8, 17] | Plant response rating, Barley, Winter [9, 19] | Radish, Wild plant response rating [10, 14] | Plant response rating, Russian Thistle [12, 20]
5: Barley, Spring plant response rating [2, 14] | Plant response rating, Barley, Spring [2, 20] | Plant response rating (scale of 0 to 100), Speedwell ([4]; Preemergence, 31 g ai/ha) | Plant response rating (scale of 0 to 100), Barley, Winter ([9]; Preemergence, 31 g ai/ha)
98: Plant response rating, Oat, Wild [8, 16]
80: Field Poppy plant response rating [1, 14] | Plant response rating, Wheat, Spring [3, 19] | Plant response rating, Speedwell [4, 16] | Plant response rating, Blackgrass [5, 16] | Plant response rating, Mustard, Wild [6, 19] | Kochia plant response rating [7, 14] | Plant response rating, Radish, Wild [10, 20] | Plant response rating, Russian Thistle [12, 15]
